Source: ChEMBL document CHEMBL5108048, “Potent GCN2 Inhibitor Capable of Reversing MDSC-Driven T Cell Suppression Demonstrates In Vivo Efficacy as a Single Agent and in Combination with Anti-Angiogenesis Therapy” (J Med Chem, 2022)
Active and inactive are the calls of the source. The rule behind the calls is not given here.

Experiments:
eIF-2-alpha kinase GCN2 [1] = molecular target: T1, eIF-2-alpha kinase GCN2 (Homo sapiens, UniProt Q9P2K8); experiment: Inhibition of GCN2 (unknown origin)
eIF-2-alpha kinase GCN2 [2] = molecular target: T1, eIF-2-alpha kinase GCN2; experiment: Inhibition of GCN2 in human SK-OV-3 cells assessed as reduction in phosphorylation of eIF2alpha by cellular assay; format: cell-based
[3] = […] in Sprague-Dawley rat […] assessed as half life at 0.5 mg/kg,iv; format: ADME, organism-based
[4] = AUC (0-infinity) in Sprague-Dawley rat at 2 mg/kg,po; format: ADME, organism-based; set-up: time infinity, dose 2 mg/kg, route po; settings: in vivo
[5] = Oral bioavailability in Sprague-Dawley rat at 2 mg/kg; format: ADME, organism-based; settings: in vivo
[6] = molecular target: T2, Eukaryotic translation initiation factor 2-alpha kinase 1 (Homo sapiens, UniProt Q9BQI3); experiment: Inhibition of HRI (unknown origin)
[7] = molecular target: T3, Interferon-induced, double-stranded RNA-activated protein kinase (Homo sapiens, UniProt P19525); experiment: Inhibition of PKR (unknown origin)
[8] = molecular target: T4, Eukaryotic translation initiation factor 2-alpha kinase 3 (Homo sapiens, UniProt Q9NZJ5); experiment: Inhibition of PERK (unknown origin)
T4 sequence (Q9NZJ5 whole entry): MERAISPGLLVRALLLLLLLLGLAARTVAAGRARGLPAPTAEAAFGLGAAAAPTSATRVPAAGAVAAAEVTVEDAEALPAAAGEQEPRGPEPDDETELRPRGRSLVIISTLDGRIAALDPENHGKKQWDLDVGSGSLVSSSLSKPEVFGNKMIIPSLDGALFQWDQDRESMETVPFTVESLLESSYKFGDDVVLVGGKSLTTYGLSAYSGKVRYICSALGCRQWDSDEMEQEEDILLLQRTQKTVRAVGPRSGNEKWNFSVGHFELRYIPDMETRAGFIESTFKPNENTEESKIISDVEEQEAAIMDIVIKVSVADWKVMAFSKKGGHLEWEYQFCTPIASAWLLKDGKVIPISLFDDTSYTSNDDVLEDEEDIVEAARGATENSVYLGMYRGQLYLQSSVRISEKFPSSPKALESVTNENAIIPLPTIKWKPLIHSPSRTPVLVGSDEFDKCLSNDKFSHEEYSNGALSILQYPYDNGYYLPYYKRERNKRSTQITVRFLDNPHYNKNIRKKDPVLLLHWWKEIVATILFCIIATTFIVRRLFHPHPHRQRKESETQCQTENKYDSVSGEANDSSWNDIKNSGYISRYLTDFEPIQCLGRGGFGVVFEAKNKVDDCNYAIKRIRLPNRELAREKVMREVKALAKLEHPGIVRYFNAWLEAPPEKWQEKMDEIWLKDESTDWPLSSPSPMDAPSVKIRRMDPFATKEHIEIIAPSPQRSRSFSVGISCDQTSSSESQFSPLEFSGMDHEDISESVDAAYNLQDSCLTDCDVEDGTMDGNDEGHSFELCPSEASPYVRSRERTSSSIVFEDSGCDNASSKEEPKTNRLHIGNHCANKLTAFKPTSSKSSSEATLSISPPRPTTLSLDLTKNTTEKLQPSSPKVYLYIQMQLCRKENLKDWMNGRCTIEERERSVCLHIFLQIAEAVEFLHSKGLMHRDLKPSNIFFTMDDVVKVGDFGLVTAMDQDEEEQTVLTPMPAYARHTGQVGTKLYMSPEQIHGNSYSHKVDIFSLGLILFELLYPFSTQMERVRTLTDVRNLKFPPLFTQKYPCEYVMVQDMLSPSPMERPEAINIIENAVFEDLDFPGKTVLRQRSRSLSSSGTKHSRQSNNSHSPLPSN

CDK6/cyclin D3 = CDK6/cyclin D3 (Homo sapiens, UniProt Q00534); experiment: Inhibition of CDK6/Cyclin-D3 (unknown origin); format: protein-complex assay
[9] = molecular target: T5, Cyclin-dependent kinase-like 2 (Homo sapiens, UniProt Q92772); experiment: Inhibition of CDKL2 (unknown origin)
T5 sequence (Q92772 whole entry): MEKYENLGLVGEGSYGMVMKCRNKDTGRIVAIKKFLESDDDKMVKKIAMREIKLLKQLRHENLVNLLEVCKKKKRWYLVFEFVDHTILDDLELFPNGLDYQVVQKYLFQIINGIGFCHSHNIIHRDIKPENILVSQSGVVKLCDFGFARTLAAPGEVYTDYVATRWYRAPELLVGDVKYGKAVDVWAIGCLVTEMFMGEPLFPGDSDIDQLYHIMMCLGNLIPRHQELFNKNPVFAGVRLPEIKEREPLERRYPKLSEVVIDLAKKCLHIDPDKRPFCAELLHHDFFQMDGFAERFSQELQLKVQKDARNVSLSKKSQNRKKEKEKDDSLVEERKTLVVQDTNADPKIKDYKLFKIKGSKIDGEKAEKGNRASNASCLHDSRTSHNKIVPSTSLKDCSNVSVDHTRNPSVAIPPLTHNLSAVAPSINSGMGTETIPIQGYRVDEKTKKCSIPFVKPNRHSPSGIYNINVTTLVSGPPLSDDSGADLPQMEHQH

[10] = molecular target: T6, Cyclin-dependent kinase-like 3 (Homo sapiens, UniProt Q8IVW4); experiment: Inhibition of CDKL3 (unknown origin)
[11] = molecular target: T7, Cyclin-dependent kinase-like 4 (Homo sapiens, UniProt Q5MAI5); experiment: Inhibition of CDKL4 (unknown origin)
[12] = molecular target: T8, Mitogen-activated protein kinase 10 (Homo sapiens, UniProt P53779); experiment: Inhibition of JNK3 (unknown origin)
[13] = molecular target: T9, Transcription initiation factor TFIID subunit 1-like (Homo sapiens, UniProt Q8IZX4); experiment: Inhibition of TAF1L (unknown origin)
[14] = molecular target: T2, Eukaryotic translation initiation factor 2-alpha kinase 1; experiment: Inhibition of HRI (unknown origin) assessed as fold change
[15] = molecular target: T3, Interferon-induced, double-stranded RNA-activated protein kinase; experiment: Inhibition of PKR (unknown origin) assessed as fold change
[16] = molecular target: T10, Eukaryotic translation initiation factor 2-alpha kinase 3 (Homo sapiens) (UniProt Q9NZJ5); experiment: Inhibition of PERK (unknown origin) assessed as fold change
T10 sequence (whole entry): T4 sequence (Q9NZJ5 whole entry)

[17] = molecular target: CDK6/cyclin D3 (Homo sapiens) (UniProt P30281+Q00534); experiment: Inhibition of CDK6/Cyclin-D3 (unknown origin) assessed as fold change; format: protein-complex assay
[18] = molecular target: T11, Cyclin-dependent kinase-like 2 (Homo sapiens) (UniProt Q92772); experiment: Inhibition of CDKL2 (unknown origin) assessed as fold change
T11 sequence (whole entry): T5 sequence (Q92772 whole entry)

[19] = molecular target: T6, Cyclin-dependent kinase-like 3; experiment: Inhibition of CDKL3 (unknown origin) assessed as fold change
[20] = molecular target: T7, Cyclin-dependent kinase-like 4; experiment: Inhibition of CDKL4 (unknown origin) assessed as fold change
[21] = molecular target: T8, Mitogen-activated protein kinase 10; experiment: Inhibition of JNK3 (unknown origin) assessed as fold change
[22] = molecular target: T9, Transcription initiation factor TFIID subunit 1-like; experiment: Inhibition of TAF1L (unknown origin) assessed as fold change
eIF-2-alpha kinase GCN2 [23] = molecular target: T1, eIF-2-alpha kinase GCN2; experiment: Inhibition of GCN2 in human SK-OV-3 cells assessed as reduction in phosphorylation of eIF2alpha in presence of human serum by cellular assay; format: cell-based
[24] = Plasma protein binding (unknown origin) assessed as unbound fraction; format: ADME, cell-free
[25] = Clearance in Balb/c mouse at 0.5 mg/kg,iv; format: ADME, organism-based; settings: in vivo
[26] = Volume of distribution at steady state in Balb/c mouse at 0.5 mg/kg,iv; format: ADME, organism-based; settings: in vivo, read-out: Vdss
[27] = AUC (0-infinity) in Balb/c mouse at 2 mg/kg,po; format: ADME, organism-based; set-up: time infinity, dose 2 mg/kg, route po; settings: in vivo
[28] = Oral bioavailability in Balb/c mouse at 2 mg/kg; format: ADME, organism-based; settings: in vivo
Mus musculus [29] = experiment: In vivo inhibition of GCN2 in Balb/c mouse injected with […] Renca cells assessed as reduction in tumor GCN2 expression level at 15 mg/kg,po bid after 17 days; format: functional; settings: Neoplasm, 408 h, time 17 day
Spleen = experiment: In vivo inhibition of GCN2 in Balb/c mouse injected with […] Renca cells assessed as reduction in spleen GCN2 expression level at 15 mg/kg,po bid after 17 days; format: functional; settings: 408 h, time 17 day
Mus musculus [30] = experiment: In vivo inhibition of GCN2 in Balb/c mouse injected with […] Renca cells assessed as reduction in ATF4 expression level at 15 mg/kg,po bid after 17 days by western blot analysis; format: functional; settings: 408 h, time 17 day
Panc02 = experiment: Antitumor activity against […] Panc02 cells xenografted in mouse assessed as decrease in MDSC- induced suppression of CD8+ T cells at 600 nM incubated for 3 days; format: functional, cell-based; settings: time 3.0 day
[31] = Antitumor activity against mouse LL2 cells xenografted in mouse assessed as tumor growth inhibition at 50 mg/kg,po bid measured after 26 days; format: functional; settings: Lewis lung carcinoma, 624 h, time 26 day, read-out: TGI
[32] = Half life in Balb/c mouse at 0.5 mg/kg,iv; format: ADME, organism-based; settings: in vivo
[33] = Antitumor activity against mouse LL2 cells xenografted in mouse assessed as tumor growth inhibition at 50 mg/kg,po bid in presence of anti-VEGFR antibody measured after 26 days; format: functional; settings: Lewis lung carcinoma, 624 h, time 26 day, read-out: TGI

T1 sequence (Q9P2K8 whole entry): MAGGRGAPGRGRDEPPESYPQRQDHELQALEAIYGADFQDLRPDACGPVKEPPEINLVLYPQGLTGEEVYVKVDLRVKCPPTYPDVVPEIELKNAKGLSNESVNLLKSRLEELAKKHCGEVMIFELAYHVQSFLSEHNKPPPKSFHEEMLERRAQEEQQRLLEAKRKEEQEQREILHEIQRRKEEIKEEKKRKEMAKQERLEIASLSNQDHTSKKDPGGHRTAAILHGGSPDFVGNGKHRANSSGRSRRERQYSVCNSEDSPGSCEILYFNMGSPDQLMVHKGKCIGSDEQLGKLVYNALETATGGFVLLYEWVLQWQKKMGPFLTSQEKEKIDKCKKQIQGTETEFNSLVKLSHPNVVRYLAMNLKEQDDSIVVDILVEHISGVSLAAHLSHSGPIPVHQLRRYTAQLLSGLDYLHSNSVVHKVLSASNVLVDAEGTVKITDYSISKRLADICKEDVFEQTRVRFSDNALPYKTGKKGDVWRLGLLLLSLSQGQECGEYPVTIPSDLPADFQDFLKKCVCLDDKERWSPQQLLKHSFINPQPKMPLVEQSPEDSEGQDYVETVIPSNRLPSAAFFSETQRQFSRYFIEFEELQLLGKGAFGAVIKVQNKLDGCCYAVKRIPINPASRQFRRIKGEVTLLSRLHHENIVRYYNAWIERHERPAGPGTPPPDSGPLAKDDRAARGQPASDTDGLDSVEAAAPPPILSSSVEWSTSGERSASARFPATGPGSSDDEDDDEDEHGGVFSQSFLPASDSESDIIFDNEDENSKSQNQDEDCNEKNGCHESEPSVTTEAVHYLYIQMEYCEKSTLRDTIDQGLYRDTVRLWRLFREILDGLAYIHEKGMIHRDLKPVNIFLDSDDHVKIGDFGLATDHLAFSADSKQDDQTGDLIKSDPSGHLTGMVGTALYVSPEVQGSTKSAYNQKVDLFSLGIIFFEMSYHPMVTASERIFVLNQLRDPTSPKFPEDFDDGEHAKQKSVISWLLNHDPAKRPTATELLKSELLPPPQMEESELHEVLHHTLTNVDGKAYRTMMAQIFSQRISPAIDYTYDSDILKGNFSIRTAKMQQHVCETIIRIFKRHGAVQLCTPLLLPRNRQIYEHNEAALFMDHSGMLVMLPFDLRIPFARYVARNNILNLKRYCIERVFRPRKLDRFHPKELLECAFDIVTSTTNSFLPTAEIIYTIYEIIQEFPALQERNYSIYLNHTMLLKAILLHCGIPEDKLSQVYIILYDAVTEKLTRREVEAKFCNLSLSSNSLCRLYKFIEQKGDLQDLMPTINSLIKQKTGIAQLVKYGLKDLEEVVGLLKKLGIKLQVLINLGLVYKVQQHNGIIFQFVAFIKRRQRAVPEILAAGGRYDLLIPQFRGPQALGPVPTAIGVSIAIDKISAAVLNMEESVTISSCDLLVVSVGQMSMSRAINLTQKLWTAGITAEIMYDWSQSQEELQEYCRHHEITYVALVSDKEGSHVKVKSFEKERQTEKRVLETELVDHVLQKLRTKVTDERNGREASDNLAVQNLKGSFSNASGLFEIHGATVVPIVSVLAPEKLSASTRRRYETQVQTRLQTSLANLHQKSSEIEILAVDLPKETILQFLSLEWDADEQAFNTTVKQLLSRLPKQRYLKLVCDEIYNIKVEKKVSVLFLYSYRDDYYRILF
T9 sequence (Q8IZX4 whole entry): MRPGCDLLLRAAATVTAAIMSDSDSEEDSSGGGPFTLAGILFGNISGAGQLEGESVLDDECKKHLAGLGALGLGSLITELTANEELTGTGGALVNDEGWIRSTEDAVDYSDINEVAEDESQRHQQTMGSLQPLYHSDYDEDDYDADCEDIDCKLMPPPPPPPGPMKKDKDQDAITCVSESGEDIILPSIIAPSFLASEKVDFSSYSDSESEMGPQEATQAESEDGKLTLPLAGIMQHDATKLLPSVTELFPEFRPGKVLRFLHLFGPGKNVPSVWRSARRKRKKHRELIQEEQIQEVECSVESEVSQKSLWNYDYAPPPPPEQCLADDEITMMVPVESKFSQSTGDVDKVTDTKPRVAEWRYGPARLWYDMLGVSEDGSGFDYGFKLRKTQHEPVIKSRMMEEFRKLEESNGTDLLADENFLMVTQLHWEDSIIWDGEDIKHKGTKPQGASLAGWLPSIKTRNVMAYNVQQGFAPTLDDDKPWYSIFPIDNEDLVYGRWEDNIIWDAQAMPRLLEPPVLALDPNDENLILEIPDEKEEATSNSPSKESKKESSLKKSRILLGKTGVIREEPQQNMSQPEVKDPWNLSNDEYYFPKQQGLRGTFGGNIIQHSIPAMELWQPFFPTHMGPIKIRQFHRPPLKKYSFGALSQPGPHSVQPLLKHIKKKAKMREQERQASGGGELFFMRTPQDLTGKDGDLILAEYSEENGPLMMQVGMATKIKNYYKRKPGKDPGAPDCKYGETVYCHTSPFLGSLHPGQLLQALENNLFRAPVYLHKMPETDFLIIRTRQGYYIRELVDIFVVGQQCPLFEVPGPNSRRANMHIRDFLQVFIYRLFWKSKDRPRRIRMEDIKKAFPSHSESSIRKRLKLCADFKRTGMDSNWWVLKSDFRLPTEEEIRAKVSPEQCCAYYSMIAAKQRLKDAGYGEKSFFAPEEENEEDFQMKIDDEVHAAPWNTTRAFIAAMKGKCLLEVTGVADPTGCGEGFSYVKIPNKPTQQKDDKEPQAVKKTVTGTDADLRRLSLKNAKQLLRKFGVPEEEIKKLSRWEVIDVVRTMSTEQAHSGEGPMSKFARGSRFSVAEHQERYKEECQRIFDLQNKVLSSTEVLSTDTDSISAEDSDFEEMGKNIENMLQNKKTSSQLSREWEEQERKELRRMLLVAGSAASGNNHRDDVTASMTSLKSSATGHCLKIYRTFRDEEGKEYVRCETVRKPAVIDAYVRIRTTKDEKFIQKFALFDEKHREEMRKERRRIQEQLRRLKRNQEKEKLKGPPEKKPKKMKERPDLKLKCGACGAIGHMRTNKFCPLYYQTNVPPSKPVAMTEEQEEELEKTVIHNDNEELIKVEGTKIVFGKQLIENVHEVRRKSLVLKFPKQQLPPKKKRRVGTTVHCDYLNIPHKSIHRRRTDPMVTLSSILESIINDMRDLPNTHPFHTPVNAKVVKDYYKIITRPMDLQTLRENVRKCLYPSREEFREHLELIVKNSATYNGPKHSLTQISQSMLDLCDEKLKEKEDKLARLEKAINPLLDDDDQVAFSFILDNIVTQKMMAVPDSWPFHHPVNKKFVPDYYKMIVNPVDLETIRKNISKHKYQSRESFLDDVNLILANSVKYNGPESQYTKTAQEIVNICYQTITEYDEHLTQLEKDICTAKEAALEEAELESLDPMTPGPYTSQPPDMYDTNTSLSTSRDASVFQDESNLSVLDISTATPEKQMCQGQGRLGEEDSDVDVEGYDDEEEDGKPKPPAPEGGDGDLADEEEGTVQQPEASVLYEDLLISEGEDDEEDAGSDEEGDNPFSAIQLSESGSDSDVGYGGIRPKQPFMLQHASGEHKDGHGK
T3 sequence (P19525 whole entry): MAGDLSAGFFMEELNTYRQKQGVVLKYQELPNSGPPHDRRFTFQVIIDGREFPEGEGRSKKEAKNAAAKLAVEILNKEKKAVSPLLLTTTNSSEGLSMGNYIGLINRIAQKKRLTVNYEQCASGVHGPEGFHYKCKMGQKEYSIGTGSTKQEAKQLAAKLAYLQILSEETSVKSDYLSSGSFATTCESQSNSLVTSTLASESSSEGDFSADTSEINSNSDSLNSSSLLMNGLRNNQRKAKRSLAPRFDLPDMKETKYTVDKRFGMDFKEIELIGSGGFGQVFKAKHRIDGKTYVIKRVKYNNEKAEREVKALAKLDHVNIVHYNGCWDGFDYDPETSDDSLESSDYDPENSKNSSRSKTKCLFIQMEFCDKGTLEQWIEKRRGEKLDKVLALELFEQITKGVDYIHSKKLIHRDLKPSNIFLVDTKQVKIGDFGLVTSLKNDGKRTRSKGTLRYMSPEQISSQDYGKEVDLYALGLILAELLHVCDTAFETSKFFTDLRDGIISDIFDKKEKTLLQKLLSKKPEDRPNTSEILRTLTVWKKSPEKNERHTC
T7 sequence (Q5MAI5 whole entry): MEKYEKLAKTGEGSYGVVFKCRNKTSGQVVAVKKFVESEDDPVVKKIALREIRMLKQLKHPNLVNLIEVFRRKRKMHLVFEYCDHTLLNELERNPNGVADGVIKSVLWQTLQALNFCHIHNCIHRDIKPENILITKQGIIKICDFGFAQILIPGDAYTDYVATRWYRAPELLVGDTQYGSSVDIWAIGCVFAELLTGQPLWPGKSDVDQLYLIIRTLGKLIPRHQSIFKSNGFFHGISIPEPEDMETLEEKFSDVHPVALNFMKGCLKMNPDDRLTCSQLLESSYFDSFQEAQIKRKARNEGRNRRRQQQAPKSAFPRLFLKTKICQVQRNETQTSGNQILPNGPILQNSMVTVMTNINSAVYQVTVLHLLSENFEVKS
T2 sequence (Q9BQI3 whole entry): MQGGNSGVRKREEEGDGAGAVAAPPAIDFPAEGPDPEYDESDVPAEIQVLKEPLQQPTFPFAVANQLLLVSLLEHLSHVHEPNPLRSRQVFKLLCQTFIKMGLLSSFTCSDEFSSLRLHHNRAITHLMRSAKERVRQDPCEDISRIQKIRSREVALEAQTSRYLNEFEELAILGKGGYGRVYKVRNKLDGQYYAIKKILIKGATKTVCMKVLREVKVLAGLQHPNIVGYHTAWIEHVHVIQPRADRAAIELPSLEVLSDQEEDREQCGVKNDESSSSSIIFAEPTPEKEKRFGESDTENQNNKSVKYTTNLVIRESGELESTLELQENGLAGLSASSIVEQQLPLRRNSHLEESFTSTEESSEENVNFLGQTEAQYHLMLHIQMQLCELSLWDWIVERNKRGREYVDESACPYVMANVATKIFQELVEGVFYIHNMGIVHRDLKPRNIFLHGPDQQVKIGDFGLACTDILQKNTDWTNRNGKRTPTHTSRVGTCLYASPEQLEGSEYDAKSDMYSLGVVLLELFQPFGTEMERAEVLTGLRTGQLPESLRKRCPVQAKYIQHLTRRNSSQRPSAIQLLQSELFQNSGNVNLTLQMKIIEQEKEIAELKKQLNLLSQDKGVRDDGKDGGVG

For CNC(=O)[C@]1(C)CC[C@@H](Nc2ncc3c(Br)nn(-c4ccc(-c5nnc(C)s5)cc4)c3n2)C1, the IC50 (eIF-2-alpha kinase GCN2 [1]) was 5 nM, the IC50 (eIF-2-alpha kinase GCN2 [2]) was 16 nM and the half-life [3] was 0.867 h. The AUC(0-inf) [4] was 4600 ng·h/mL, the bioavailability [5] was 80% and the IC50 [6] was > 1000 nM. The IC50 [7] was > 50000 nM, the IC50 [8] was > 50000 nM and the IC50 (CDK6/cyclin D3) was 191 nM. It also gave an IC50 [9] of 165 nM, an IC50 [10] of 143 nM and an IC50 [11] of 118 nM. For the same compound, the IC50 [12] was 101 nM, the IC50 [13] was 124 nM and the fold change (FC) [14] was > 200. For the same compound, the fold change (FC) [15] was > 10000, the fold change (FC) [16] was > 10000 and the fold change (FC) [17] was 38. For the same compound, the fold change (FC) [18] was 33, the fold change (FC) [19] was 28 and the fold change (FC) [20] was 23. The fold change (FC) [21] was 20, the fold change (FC) [22] was 25 and the IC50 (eIF-2-alpha kinase GCN2 [23]) was 1310 nM. The Fu [24] was 1%, the clearance [25] was 10 mL/min/kg and the Vd [26] was 0.8 L/kg. For the same compound, the AUC(0-inf) [27] was 1680 ng·h/mL, the bioavailability [28] was 50% and the inhibition in vivo at 15 mg/kg (Mus musculus [29]) was 84%. The inhibition in vivo at 15 mg/kg (Spleen) was 80%, the inhibition in vivo at 15 mg/kg (Mus musculus [30]) was 65% and the Activity (Panc02) was “Active”. For the same compound, the inhibition in vivo at 50 mg/kg [31] was 56%, the half-life [32] was 1.2 h and the inhibition in vivo at 50 mg/kg [33] was 79%.
